Data taken from article PMC3382171 (PLoS ONE, 2012).

Tests used:
Test in all cases: biochemical
Design in all cases: Invitrogen SelectScreen kinase panel, percent inhibition at 1 uM, ATP at Km
Settings in all cases: read-out: Invitrogen KSS %Inh at 1 µM
[1] = target: CDK2/CyclinA (Homo sapiens, UniProt P24941)
Procedure, shortened: (§1)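 Commercial kinase panel screens run with ATP at the Km for each kinase. Compounds tested at 1 µM final concentration; values are % inhibition of phosphorylation relative to control.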

[2] = target: CSNK1D (CK1 delta) (Homo sapiens, UniProt P48730)
Procedure, shortened: as §1

[3] = target: EPHA4 (Homo sapiens, UniProt P54764)
Procedure, shortened: as §1

[4] = target: FGFR1 (Homo sapiens, UniProt P11362)
Procedure, shortened: as §1

[5] = target: FLT1 (VEGFR1) (Homo sapiens, UniProt P17948)
FLT1 (VEGFR1), sequence (P17948 whole entry): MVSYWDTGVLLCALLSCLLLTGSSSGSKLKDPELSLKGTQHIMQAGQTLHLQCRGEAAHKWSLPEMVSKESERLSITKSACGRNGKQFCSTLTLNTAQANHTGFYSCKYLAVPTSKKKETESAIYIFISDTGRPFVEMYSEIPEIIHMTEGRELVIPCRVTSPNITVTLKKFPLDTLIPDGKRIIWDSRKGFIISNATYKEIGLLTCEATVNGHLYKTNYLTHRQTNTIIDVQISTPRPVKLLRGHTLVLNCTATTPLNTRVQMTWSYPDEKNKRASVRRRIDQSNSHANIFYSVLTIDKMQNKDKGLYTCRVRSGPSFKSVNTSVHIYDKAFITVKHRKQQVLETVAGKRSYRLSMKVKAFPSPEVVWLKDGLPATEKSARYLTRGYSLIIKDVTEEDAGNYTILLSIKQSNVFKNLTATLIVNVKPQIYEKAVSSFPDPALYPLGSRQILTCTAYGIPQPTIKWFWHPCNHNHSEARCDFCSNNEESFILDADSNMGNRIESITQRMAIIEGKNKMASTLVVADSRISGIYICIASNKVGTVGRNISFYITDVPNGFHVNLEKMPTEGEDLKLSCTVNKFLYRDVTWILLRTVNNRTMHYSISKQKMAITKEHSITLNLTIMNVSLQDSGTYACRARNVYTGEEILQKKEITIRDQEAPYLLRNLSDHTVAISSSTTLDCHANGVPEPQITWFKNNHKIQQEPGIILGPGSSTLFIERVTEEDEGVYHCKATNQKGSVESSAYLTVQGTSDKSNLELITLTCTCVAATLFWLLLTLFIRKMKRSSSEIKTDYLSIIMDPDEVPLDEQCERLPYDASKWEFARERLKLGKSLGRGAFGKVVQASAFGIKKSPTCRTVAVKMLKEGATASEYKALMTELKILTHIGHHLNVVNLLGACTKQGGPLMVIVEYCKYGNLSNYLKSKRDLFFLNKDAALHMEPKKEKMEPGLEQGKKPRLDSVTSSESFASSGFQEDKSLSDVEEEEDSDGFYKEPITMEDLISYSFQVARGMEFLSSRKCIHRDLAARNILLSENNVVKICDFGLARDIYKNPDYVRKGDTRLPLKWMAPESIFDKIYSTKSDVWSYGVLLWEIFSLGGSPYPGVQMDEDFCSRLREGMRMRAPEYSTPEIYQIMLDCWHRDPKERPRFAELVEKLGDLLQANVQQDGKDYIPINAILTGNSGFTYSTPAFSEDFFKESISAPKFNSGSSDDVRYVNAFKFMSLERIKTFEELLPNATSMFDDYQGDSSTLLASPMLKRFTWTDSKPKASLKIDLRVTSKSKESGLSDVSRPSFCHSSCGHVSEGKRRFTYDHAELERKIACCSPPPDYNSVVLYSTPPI
Procedure, shortened: as §1

[6] = target: GRK4 (Homo sapiens, UniProt P32298)
Procedure, shortened: as §1

[7] = target: INSRR (IRR) (Homo sapiens, UniProt P14616)
INSRR (IRR), sequence (P14616 whole entry): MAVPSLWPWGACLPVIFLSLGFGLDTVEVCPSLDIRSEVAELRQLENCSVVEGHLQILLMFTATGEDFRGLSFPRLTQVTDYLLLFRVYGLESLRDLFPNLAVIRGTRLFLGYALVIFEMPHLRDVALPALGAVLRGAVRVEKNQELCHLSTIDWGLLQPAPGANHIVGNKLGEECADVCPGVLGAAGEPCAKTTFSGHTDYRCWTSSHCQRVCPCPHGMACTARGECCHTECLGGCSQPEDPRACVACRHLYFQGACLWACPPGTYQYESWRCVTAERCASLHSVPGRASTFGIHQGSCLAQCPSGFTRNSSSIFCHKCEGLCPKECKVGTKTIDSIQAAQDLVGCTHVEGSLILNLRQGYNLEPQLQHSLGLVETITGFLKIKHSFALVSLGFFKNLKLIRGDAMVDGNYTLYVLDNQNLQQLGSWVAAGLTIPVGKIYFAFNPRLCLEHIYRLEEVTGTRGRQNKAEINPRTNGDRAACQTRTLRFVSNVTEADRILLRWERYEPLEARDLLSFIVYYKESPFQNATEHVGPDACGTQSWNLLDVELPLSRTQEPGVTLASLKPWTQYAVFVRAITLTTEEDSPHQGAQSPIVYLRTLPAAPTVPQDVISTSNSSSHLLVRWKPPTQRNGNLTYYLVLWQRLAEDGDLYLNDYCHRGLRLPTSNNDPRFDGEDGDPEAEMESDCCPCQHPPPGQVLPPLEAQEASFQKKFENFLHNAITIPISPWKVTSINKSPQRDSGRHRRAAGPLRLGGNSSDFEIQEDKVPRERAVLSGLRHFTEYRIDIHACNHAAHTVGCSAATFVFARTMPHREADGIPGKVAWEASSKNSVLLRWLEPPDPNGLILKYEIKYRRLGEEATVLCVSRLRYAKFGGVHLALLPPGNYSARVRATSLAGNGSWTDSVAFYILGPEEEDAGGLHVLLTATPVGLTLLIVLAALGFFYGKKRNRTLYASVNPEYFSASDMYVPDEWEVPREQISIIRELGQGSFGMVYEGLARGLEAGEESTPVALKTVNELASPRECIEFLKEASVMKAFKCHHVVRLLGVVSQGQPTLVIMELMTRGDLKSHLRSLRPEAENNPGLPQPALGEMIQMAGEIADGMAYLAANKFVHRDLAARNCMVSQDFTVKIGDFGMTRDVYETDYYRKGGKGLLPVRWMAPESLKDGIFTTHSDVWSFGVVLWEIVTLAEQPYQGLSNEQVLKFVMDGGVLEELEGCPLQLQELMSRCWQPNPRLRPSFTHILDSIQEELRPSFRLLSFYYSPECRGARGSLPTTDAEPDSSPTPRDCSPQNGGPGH
Procedure, shortened: as §1

[8] = target: KIT T670I (Homo sapiens, UniProt P10721, T670I)
Procedure, shortened: as §1

[9] = target: MAP3K8 (COT) (Homo sapiens, UniProt P41279)
MAP3K8 (COT), sequence (P41279 whole entry): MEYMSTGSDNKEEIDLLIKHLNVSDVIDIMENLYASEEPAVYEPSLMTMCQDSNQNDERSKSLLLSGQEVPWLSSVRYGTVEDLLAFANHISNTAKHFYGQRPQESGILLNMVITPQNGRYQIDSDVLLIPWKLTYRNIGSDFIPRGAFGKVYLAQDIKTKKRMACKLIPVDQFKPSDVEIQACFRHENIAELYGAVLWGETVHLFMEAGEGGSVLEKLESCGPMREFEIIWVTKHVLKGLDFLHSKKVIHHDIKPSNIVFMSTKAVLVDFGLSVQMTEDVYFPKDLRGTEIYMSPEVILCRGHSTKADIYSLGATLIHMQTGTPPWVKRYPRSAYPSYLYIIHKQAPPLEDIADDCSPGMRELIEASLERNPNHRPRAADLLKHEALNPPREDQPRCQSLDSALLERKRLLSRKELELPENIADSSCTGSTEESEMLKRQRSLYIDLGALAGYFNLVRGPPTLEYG
Procedure, shortened: as §1

[10] = target: MAP4K2 (GCK) (Homo sapiens, UniProt Q12851)
Procedure, shortened: as §1

[11] = target: MAPK10 (JNK3) (Homo sapiens, UniProt P53779)
MAPK10 (JNK3), sequence (P53779 whole entry): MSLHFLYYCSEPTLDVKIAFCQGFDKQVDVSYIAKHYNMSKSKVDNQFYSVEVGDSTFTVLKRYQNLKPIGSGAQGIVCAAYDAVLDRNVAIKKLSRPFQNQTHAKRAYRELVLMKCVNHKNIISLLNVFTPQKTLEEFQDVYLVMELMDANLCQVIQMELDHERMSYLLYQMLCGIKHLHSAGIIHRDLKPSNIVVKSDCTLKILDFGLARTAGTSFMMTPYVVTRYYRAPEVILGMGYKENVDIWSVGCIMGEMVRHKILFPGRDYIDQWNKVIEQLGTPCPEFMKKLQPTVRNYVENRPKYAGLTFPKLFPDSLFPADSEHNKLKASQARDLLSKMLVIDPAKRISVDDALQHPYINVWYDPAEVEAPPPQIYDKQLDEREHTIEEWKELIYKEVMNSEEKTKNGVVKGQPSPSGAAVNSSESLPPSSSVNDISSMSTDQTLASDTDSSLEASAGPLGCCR
Procedure, shortened: as §1

[12] = target: MAPK12 (p38 gamma) (Homo sapiens, UniProt P53778)
MAPK12 (p38 gamma), sequence (P53778 whole entry): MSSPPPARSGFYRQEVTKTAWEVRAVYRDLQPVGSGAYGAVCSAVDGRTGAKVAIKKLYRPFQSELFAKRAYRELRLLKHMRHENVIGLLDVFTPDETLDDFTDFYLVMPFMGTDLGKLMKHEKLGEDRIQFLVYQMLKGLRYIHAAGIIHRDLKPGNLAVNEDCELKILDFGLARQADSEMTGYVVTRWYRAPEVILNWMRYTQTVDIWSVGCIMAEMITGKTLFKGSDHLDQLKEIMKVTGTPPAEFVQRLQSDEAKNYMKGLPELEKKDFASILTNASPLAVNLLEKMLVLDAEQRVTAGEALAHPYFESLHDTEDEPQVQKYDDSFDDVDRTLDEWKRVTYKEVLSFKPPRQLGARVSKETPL
Procedure, shortened: as §1

[13] = target: MAPK14 (p38 alpha)** (Homo sapiens, UniProt Q16539)
MAPK14 (p38 alpha)**, sequence (Q16539 whole entry): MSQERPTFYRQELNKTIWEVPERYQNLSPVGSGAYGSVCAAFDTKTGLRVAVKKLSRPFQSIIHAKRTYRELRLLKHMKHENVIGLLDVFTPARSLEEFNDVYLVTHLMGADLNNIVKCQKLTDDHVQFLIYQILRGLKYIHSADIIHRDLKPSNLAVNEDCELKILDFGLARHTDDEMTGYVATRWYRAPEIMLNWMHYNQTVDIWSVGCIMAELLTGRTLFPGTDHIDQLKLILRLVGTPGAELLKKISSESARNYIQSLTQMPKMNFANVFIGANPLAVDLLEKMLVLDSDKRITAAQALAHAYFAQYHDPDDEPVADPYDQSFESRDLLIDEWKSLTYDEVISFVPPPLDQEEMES
Procedure, shortened: as §1

[14] = target: MAPK9 (JNK2) (Homo sapiens, UniProt P45984)
MAPK9 (JNK2), sequence (P45984 whole entry): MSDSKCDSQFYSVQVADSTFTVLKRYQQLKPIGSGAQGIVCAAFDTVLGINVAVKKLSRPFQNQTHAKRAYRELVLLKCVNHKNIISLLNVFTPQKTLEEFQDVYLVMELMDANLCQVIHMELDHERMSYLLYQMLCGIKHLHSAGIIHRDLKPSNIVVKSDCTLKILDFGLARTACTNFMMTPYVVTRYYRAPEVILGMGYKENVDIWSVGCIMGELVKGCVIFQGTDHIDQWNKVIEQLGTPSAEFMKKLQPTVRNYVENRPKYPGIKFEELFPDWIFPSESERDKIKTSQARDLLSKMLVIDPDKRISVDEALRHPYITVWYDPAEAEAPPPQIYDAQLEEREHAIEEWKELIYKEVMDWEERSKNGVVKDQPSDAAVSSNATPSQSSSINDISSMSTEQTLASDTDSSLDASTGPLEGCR
Procedure, shortened: as §1

[15] = target: MINK1 (Homo sapiens, UniProt Q8N4C8)
Procedure, shortened: as §1

[16] = target: NEK2 (Homo sapiens, UniProt P51955)
Procedure, shortened: as §1

[17] = target: PDGFRA (PDGFR alpha) (Homo sapiens, UniProt P16234)
Procedure, shortened: as §1

[18] = target: PIM1 (Homo sapiens, UniProt P11309)
PIM1, sequence (P11309 whole entry): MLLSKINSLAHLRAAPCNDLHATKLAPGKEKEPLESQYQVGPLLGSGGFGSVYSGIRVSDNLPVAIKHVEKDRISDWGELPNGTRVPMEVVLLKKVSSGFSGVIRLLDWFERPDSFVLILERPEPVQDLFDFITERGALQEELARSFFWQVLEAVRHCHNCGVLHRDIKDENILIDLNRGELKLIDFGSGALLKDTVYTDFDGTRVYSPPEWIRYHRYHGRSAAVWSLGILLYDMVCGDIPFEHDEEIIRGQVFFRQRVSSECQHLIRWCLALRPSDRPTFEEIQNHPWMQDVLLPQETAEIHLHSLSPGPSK
Procedure, shortened: as §1

[19] = target: PRKD1 (PKC mu) (Homo sapiens, UniProt Q15139)
Procedure, shortened: as §1

[20] = target: RPS6KA4 (MSK2) (Homo sapiens, UniProt O75676)
Procedure, shortened: as §1

[21] = target: TEK (Tie2) (Homo sapiens, UniProt Q02763)
Procedure, shortened: as §1

[22] = target: ZAP70 (Homo sapiens, UniProt P43403)
Procedure, shortened: as §1

inhibition at 1 µM [1]: 18% | inhibition at 1 µM [2]: 95% | inhibition at 1 µM [3]: 1% | inhibition at 1 µM [4]: 1% | inhibition at 1 µM [5]: 2% | inhibition at 1 µM [6]: -18% | inhibition at 1 µM [7]: 3% | inhibition at 1 µM [8]: 36% | inhibition at 1 µM [9]: 24% | inhibition at 1 µM [10]: -12% | inhibition at 1 µM [11]: 81% | inhibition at 1 µM [12]: 2% | inhibition at 1 µM [13]: 93% | inhibition at 1 µM [14]: 101% | inhibition at 1 µM [15]: 8% | inhibition at 1 µM [16]: 40% | inhibition at 1 µM [17]: 10% | inhibition at 1 µM [18]: 2% | inhibition at 1 µM [19]: 37% | inhibition at 1 µM [20]: 5% | inhibition at 1 µM [21]: 2% | inhibition at 1 µM [22]: 3%
Structure (SMILES): N#CCCNc1nccc(-c2cn(CC(F)F)nc2-c2cnc3[nH]ccc3c2)n1 [RAFi, PF-04880594]
